# According to US9975896B2, “Inhibitors of transcription factors and uses thereof” (Dana-Farber Cancer Institute, Inc., priority 2013, dated 2018):
# Where two headings read alike, the source gives them in different places.
# Key:
# Test in all cases: BromoScan selectivity panel (Kd)
# Type in all cases: binding
# BRDT(1) = target: T1, BRDT(1) (Homo sapiens, UniProt Q58F21)
# T1 construct: the bromodomain-containing protein is BRDT(1)
# BRD4(1) = target: T2, BRD4(1) (Homo sapiens, UniProt O60885)
# T2 construct: the bromodomain-containing protein is BRD4(1)
# EP300 = target: T3, EP300 (Homo sapiens, UniProt Q09472)
# T3 sequence (Q09472 1040-1161 limits assumed): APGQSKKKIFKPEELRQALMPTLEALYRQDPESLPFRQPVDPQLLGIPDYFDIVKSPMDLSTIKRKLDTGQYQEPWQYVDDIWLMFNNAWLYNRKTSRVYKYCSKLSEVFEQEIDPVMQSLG
# BRPF3 = target: T4, BRPF3 (Homo sapiens, UniProt Q9ULD4)
# T4 sequence (Q9ULD4 589-693 limits assumed): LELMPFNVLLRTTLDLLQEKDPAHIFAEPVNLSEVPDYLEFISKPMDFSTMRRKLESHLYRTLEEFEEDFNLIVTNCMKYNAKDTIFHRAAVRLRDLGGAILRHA
# TRIM33(PHD Bromo.) = target: T5, TRIM33(PHD Bromo.) (Homo sapiens, UniProt Q9UPN9)
# T5 construct: TRIM33(PHD, Bromo.); TRIM33(PHD Bromo.); fused on or other part: The vendor panel's detection tag or display handle
# T5 sequence (Q9UPN9 1-1127): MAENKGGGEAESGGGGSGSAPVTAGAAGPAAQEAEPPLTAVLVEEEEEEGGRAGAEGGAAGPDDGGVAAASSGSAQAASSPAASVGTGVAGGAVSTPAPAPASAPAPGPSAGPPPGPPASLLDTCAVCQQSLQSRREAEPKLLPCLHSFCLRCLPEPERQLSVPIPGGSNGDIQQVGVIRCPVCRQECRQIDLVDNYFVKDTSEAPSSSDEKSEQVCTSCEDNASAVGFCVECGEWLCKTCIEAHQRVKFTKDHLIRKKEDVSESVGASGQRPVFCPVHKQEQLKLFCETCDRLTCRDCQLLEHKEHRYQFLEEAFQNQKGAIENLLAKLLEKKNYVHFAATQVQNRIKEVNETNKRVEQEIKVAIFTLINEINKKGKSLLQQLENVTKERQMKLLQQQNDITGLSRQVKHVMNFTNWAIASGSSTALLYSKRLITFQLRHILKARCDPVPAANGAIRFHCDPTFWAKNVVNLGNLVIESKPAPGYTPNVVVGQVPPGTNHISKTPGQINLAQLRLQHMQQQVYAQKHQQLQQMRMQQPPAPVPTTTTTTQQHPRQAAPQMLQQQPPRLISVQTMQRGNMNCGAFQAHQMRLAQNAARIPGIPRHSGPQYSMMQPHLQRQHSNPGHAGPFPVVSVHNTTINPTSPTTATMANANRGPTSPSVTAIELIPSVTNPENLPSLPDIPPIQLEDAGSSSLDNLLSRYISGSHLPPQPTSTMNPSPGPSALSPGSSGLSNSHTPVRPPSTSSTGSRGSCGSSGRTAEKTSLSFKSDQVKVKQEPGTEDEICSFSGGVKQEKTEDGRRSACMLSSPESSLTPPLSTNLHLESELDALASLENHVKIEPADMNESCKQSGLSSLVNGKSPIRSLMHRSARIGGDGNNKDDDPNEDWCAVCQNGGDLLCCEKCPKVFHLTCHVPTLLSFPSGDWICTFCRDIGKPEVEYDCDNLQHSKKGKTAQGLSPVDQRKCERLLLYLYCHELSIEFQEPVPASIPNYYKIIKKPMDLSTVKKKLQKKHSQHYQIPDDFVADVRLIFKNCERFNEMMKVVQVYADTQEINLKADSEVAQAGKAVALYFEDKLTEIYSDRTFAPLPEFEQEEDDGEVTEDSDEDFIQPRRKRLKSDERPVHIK
# BAZ2A = target: T6, BAZ2A (Homo sapiens, UniProt Q9UIF9)
# T6 sequence (Q9UIF9 1796-1899 limits assumed): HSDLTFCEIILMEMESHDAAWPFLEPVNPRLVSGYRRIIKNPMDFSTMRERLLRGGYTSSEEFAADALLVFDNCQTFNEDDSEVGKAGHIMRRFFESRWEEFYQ
# TRIM24(PHD Bromo.) = target: T7, TRIM24(PHD Bromo.) (Homo sapiens, UniProt O15164)
# T7 construct: TRIM24(PHD Bromo.)
# T7 sequence (O15164 824-1006 limits assumed): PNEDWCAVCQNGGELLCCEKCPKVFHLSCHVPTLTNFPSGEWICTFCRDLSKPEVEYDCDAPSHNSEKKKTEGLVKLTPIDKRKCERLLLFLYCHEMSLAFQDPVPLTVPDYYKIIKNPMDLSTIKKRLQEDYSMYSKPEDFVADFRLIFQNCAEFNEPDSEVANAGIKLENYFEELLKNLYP
# BRD1 = target: T8, BRD1 (Homo sapiens, UniProt O95696)
# T8 sequence (O95696 556-688 limits assumed): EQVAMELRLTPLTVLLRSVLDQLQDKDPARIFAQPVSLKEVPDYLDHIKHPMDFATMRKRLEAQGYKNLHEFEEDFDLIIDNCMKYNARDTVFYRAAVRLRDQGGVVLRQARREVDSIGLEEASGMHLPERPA
structure (smiles),measurement,setting,value
"Cc1noc(C)c1-c1ccc(-c2nc3cnccn3c2NC(C)(C)C)cc1 [UMB32, N-(tert-butyl)-2-(4-(3,5-dimethylisoxazol-4-yl)phenyl)imidazo[1,2-a]pyrazin-3-amine]",Kd,"BRDT(1); Table 8, read-out: Kd (nM) BRDT(1)",110 nM
same,Kd,"BRDT(1); Table 9, read-out: BromoScan Kd, nM BRDT(1)",110 nM
same,Kd,"BRD4(1); Table 8, read-out: Kd (nM) BRD4(1)",80 nM
same,Kd,"BRD4(1); Table 9, read-out: BromoScan Kd, nM BRD4(1)",80 nM
same,Kd,"EP300; Table 8, read-out: Kd (nM) EP300",4500 nM
same,Kd,"EP300; Table 9, read-out: BromoScan Kd, nM EP300",4500 nM
same,Kd,"BRPF3; Table 8, read-out: Kd (nM) BRPF3",≥ 40000 nM
same,Kd,"BRPF3; Table 9, read-out: BromoScan Kd, nM BRDF3",≥ 40000 nM
same,Kd,"TRIM33(PHD Bromo.); Table 8, read-out: Kd (nM) TRIM33(PHD Bromo.)",≥ 40000 nM
same,Kd,"TRIM33(PHD Bromo.); Table 9, read-out: BromoScan Kd, nM TRIM33(PHD, Bromo.)",≥ 40000 nM
same,Kd,"BAZ2A; Table 8, read-out: Kd (nM) BAZ2A",≥ 40000 nM
same,Kd,"BAZ2A; Table 9, read-out: BromoScan Kd, nM BAZ2A",≥ 40000 nM
same,Kd,"TRIM24(PHD Bromo.); Table 8, read-out: Kd (nM) TRIM24(PHD Bromo.)",≥ 40000 nM
same,Kd,"TRIM24(PHD Bromo.); Table 9, read-out: BromoScan Kd, nM TRIM24(PHD, Bromo.)",≥ 40000 nM
same,Kd,"BRD1; Table 8, read-out: Kd (nM) BRD1",≥ 40000 nM
same,Kd,"BRD1; Table 9, read-out: BromoScan Kd, nM BRD1",≥ 40000 nM
